{"source": "patent US20080119492A1", "about": "“Compositions and methods for treating cancer and other diseases characterized by abnormal cell proliferation” (priority 2005, published 2008)", "key": {"SF 763 cells [1]": {"system": "SF 763 cells", "assay": "Growth of GBM cells in continuous 14-day culture with ThAcr2", "type": "cell-based, human", "conditions": "0.5, 1 and 2 μM ThAcr2, continuous 14 days, more pronounced effect on SF 763", "protocol": "(§1) GBM cells were maintained in culture for 14 days in the presence of 0.5, 1 and 2 μM ThAcr2."}, "SF 767 cells [2]": {"system": "SF 767 cells", "assay": "Growth of GBM cells in continuous 14-day culture with ThAcr2", "type": "cell-based, human", "conditions": "0.5, 1 and 2 μM ThAcr2, continuous 14 days", "protocol": "as §1"}, "[3]": {"system": "GBM cell lines SF 763 and SF 767", "assay": "Short-term (3 days) cell viability", "type": "cell-based, human", "conditions": "0.5, 1 and 2 μM"}, "[4]": {"system": "telomere and telomerase (hTERT) in GBM cell lines SF 763 and SF 767", "assay": "Effects on telomere and telomerase (telomere length, hTERT expression by real-time RT-PCR)", "type": "cell-based, human", "conditions": "1 μM ThAcr2, 7 and 14 days", "protocol": "(§2) The effects of 1 μM ThAcr2 on telomere and telomerase after 7 and 14 days of treatment were evaluated."}, "SF 763 cell": {"system": "SF 763 cell", "assay": "Cytogenetic analysis of telomere fusions", "type": "cell-based, human", "protocol": "The fusion frequency was 0.3 in untreated cells and 1.6 in ThAcr2-treated cells.\nas §2"}, "GBM cells": {"system": "GBM cells", "assay": "Flow cytometry of cell cycle distribution and apoptosis (annexin-propidium iodide)", "type": "cell-based, human", "conditions": "7 days", "protocol": "Using flow cytometry, cell cycle distribution and apoptosis in cells treated for 7 days with 0.5-2 μM ThAcr2 were examined. […] The percentage of cells in the G2/M phase increased from 10% to 20%. The annexin-propidium iodide (apoptotic) fraction was essentially identical (9-11%) in control and treated cells at lower ThAcr2 concentrations ([…]) but increased to 34% in cells treated with 2 μM ThAcr2."}, "SF 763 cells [5]": {"system": "SF 763 cells", "assay": "Long-term (50 days) treatment with ThAcr2", "type": "cell-based, human", "conditions": "from day 30", "protocol": "(§3) To further investigate the tumor-growth inhibition effect of ThAcr2 as a single agent, the GBM cells were exposed to 1 μM ThAcr2 for 50 days."}, "SF 767 cells [6]": {"system": "SF 767 cells", "assay": "Long-term (50 days) treatment with ThAcr2", "type": "cell-based, human", "conditions": "1 μM ThAcr2 for 50 days, from day 30", "protocol": "as §3"}, "SF 763 cells [7]": {"system": "SF 763 cells", "assay": "Clonogenic survival, ThAcr2 combined with X-rays", "type": "cell-based, human", "conditions": "1 μM ThAcr2 for 7 days, replated, 3 Gy X-rays, corrected for ThAcr2 alone", "protocol": "(§4) To explore the effect of ThAcr2 in combination with ionizing radiation on GBM cells, clonogenic survival of SF 763 and SF 767 cells was analyzed. Although both cell lines were radio-resistant, the surviving fraction after 2 Gy was greater in SF 763 (80%) than in SF 767 cells (56%), indicating stronger resistance of SF 763 cells to radiation.\n(§5) For combination experiments, non-toxic sub-apoptotic ThAcr2 concentrations of 0.5 and 1 μM were utilized. […] SF 763 cells were treated with […] ThAcr2 for 7 days, then replated and irradiated with a 3 Gy-dose of X-rays. SF 767 cells were treated with 0.5 μM ThAcr2 for 14 days, then replated and irradiated with a 2-Gy dose. […] The combination of ThAcr2 with radiation was additive when the ThAcr2 treatment started after irradiation."}, "SF 767 cells [8]": {"system": "SF 767 cells", "assay": "Clonogenic survival, ThAcr2 combined with X-rays", "type": "cell-based, human", "conditions": "0.5 μM ThAcr2 for 14 days, replated, 2-Gy X-rays, corrected for ThAcr2 alone", "protocol": "as §4, §5"}, "GBM tumor cells": {"system": "GBM tumor cells", "assay": "Clonogenic survival, ThAcr2 combined with radiation, schedule of combination", "type": "cell-based, human", "protocol": "as §4, §5"}, "[9]": {"system": "model guanine quadruplexes inspired from human telomeres", "assay": "Affinity for guanine quadruplexes", "type": "binding", "conditions": "1:2 mixture of mono- and di-cation species", "source_text": "U-shaped molecules holding two potentially intercalating units 7 Å apart have been designed to have a moderate affinity for duplex DNA on the basis of the nearest neighbor exclusion principle but may display strong binding affinity for other architectures such as guanine quadruplexes."}, "glioblastoma cells": {"system": "glioblastoma cells", "assay": "Administration of compositions comprising ThAcr2 to glioblastoma cells", "type": "cell-based"}}, "data": [{"substance": "4,6-bis-(6-(10-N-methylacrid-9-ylinium)pyridin-2-yl)-pyrimidine bistriflate [ThAcr2]", "values": [{"measurement": "tumor cell growth", "setting": "SF 763 cells [1]", "value": "inhibited tumor cell growth"}, {"measurement": "tumor cell growth", "setting": "SF 767 cells [2]", "value": "inhibited tumor cell growth"}, {"measurement": "short-term cell viability", "setting": "[3]", "value": "non-toxic"}, {"measurement": "telomere length", "setting": "[4]", "value": "did not reduce telomere length"}, {"measurement": "telomere fusions (cytogenetic analysis)", "setting": "SF 763 cell; 1 μM ThAcr2, day 7", "value": "multiple telomere fusions"}, {"measurement": "telomere fusion frequency", "setting": "SF 763 cell; SF 763 metaphase, FIG. 3, untreated cells 0.3", "value": 1.6}, {"measurement": "annexin-propidium iodide (apoptotic) fraction", "setting": "GBM cells; 2 μM ThAcr2", "value": 34, "unit": "%"}, {"measurement": "percentage of cells in the G2/M phase", "setting": "GBM cells; 0.5-2 μM ThAcr2, untreated 10%", "value": 20, "unit": "%"}, {"measurement": "annexin-propidium iodide (apoptotic) fraction", "setting": "GBM cells; lower ThAcr2 concentrations (0.5 and 1 μM), identical in control", "value": "9-11%"}, {"measurement": "rate of cell proliferation after long-term treatment", "setting": "SF 763 cells [5]; 1 μM ThAcr2 for 50 days", "value": "increase in the rate of cell proliferation"}, {"measurement": "overexpression of telomerase", "setting": "SF 763 cells [5]; 1 μM ThAcr2 long-term", "value": "up to 7 fold"}, {"measurement": "rate of cell proliferation after long-term treatment", "setting": "SF 767 cells [6]", "value": "increase in the rate of cell proliferation"}, {"measurement": "reduction of surviving fraction of tumor cells", "setting": "SF 763 cells [7]", "value": 2.5, "unit": "fold"}, {"measurement": "reduction of surviving fraction of tumor cells", "setting": "SF 767 cells [8]", "value": 2.3, "unit": "fold"}, {"measurement": "clonogenic survival with combination therapy versus radiation alone", "setting": "GBM tumor cells; FIG. 4, P<0.001", "value": "markedly decreased"}, {"measurement": "combination of ThAcr2 with radiation", "setting": "GBM tumor cells; ThAcr2 treatment started after irradiation", "value": "additive"}, {"measurement": "combination of ThAcr2 with radiation", "setting": "GBM tumor cells; cells continuously treated before and after irradiation", "value": "supra-additive or had a synergistic effect"}, {"measurement": "affinity for model guanine quadruplexes", "setting": "[9]", "value": "strong affinity"}, {"measurement": "glioblastoma cells after administration", "setting": "glioblastoma cells", "value": "reduction of glioblastoma cells"}]}]}
